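Interpolation was linear, between the two tested concentrations surrounding the appropriate level; five concentrations were tested over 48 hours in 96-well plates. Here, GI50 denotes the concentration required for 50% inhibition of growth.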 Calls of active or inactive are those of the source. Cut-off read from the data, not from the text of the source: active = GI50 up to about 1.1 µM and inactive = higher. Residues, ends and D or L forms follow the SMILES beside them. *: point of attachment. Boc = CC(C)(C)OC(=O)*
Tests used:
Assay in all cases: DTP human tumour cell line panel, 48 h
[1] = test system: MCF7
[2] = test system: NCI-H460
[3] = test system: OVCAR-3
[4] = test system: SF-539
[5] = test system: LOX IMVI
[6] = test system: CCRF-CEM
[7] = test system: EKVX
[8] = test system: 786-0
[9] = test system: MDA-MB-435
[10] = test system: HCT-15
[11] = test system: OVCAR-4
[12] = test system: SF-295
[13] = test system: K562
[14] = test system: MDA-MB-231
[15] = test system: HL-60
[16] = test system: NCI/ADR-RES
[17] = test system: HT-29
[18] = test system: SNB-19
[19] = test system: A498
[20] = test system: RXF 393

SMILES | GI50 [1] | GI50 [2] | GI50 [3] | GI50 [4] | GI50 [5] | GI50 [6] | GI50 [7] | GI50 [8] | GI50 [9] | GI50 [10] [µM] | GI50 [11] | GI50 [12] | GI50 [13] | GI50 [14] | GI50 [15] | GI50 [16] | GI50 [17] | GI50 [18] | GI50 [19] | GI50 [20]
CSC1=NN=C(SC)NN1 | 0.201 µM (active) | 0.196 µM (active) | 0.185 µM (active) | 0.205 µM (active) | 0.15 µM (active) | 0.0243 µM (active) | 0.186 µM (active) | 0.182 µM (active) | 0.182 µM (active) | 0.169 | 0.172 µM (active) | 0.198 µM (active) | 0.117 µM (active) | 0.22 µM (active) | 0.0369 µM (active) | 0.3 µM (active) | 0.173 µM (active) | 0.191 µM (active) |  | 
CC(C)(C)OC(=O)NC(Cc1ccc(O)cc1)C(=O)NC(CCCCN)C(=O)O (stereo not drawn) (Boc-Tyr-Lys-OH; configuration not given here) | 30.4 µM (inactive) | 25.2 µM (inactive) | 28.4 µM (inactive) |  | 15 µM (inactive) | 33.4 µM (inactive) |  | 28.4 µM (inactive) | 20.7 µM (inactive) | > 10 | 17.5 µM (inactive) |  | 35.8 µM (inactive) | 21.8 µM (inactive) | 23.7 µM (inactive) |  | 47.4 µM (inactive) | 22 µM (inactive) | 24.8 µM (inactive) | 
CC(C)N(C(=O)C12C3C4C5C3C1(C(=O)N(C(C)C)C(C)C)C5C42)C(C)C (stereo not given) |  | > 56.8 µM (inactive) | > 100 µM (inactive) | > 100 µM (inactive) | > 46.8 µM (inactive) | > 47.1 µM (inactive) | > 100 µM (inactive) | > 100 µM (inactive) |  | > 71.8 | > 100 µM (inactive) | > 100 µM (inactive) | > 39.2 µM (inactive) |  | > 37.6 µM (inactive) |  | > 100 µM (inactive) | > 100 µM (inactive) | > 100 µM (inactive) | > 100 µM (inactive)
CC(=O)OC1CC2C(C)(C)C(=O)C=C[C@]2(C)C2CCC3(C)C(c4ccoc4)[C@@H](O)[C@H]4O[C@]43[C@]12C (stereo not given in full) |  | 19.3 µM (inactive) | 17.7 µM (inactive) | 17.9 µM (inactive) | 16.9 µM (inactive) | 21.6 µM (inactive) | 30.2 µM (inactive) | 17.5 µM (inactive) |  | 17.4 | 19.7 µM (inactive) | 23.3 µM (inactive) | 16.4 µM (inactive) |  | 24.9 µM (inactive) |  | 21.7 µM (inactive) | 24 µM (inactive) | 29.6 µM (inactive) | 19.1 µM (inactive)

— ChEMBL document CHEMBL1201862, “PubChem BioAssay data set” (2004)
